Among the data in patent US7705030B2, “Amino-5-(5-membered)hetero-arylimidazolone compounds and the use thereof for β-secretase modulation” (Wyeth LLC, priority 2005, dated 2010) are IC50 values, retold here.

A value given as a limit tells only on which side of the number the result lay.

human BACE1, sequence (P56817 46-501): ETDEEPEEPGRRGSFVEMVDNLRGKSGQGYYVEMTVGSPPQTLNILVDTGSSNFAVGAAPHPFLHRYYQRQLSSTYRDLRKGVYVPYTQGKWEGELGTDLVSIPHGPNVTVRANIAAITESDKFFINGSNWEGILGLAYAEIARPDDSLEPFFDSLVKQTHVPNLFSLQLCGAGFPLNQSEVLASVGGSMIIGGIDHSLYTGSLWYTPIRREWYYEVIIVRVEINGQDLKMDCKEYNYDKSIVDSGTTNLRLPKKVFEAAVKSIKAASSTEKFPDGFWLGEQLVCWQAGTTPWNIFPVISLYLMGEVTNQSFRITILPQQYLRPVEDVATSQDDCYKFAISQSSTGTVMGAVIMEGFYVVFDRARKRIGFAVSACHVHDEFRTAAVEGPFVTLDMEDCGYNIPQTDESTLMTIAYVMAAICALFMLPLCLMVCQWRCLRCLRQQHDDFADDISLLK

The assay concerns the target human BACE1 (Homo sapiens, UniProt P56817). The experiment in a line: Fluorescent kinetic assay: Evaluation of BACE-1 Binding Affinity of Test Compounds. Type of assay: biochemical. The following applies: 10 nM enzyme, 25 μM substrate WABC-6, 50 mM Na-Acetate pH 4.5, room temperature. As to the method: Evaluation of BACE-1 Binding Affinity of Test Compounds
Fluorescent Kinetic Assays
Final Assay Conditions: 10 nM human BACE1 (or 10 nM Murine BACE1, 1.5 nM human BACE2), 25 μM substrate (WABC-6, MW 1549.6, from AnaSpec), Buffer: 50 mM Na-Acetate, pH 4.5, 0.05% CHAPS, 25% PBS, room temperature. Na-Acetate was from Aldrich, Cat.# 24, 124-5, CHAPS was from Research Organics, Cat. # 1304C 1×, PBS was from Mediatech (Cellgro), Cat# 21-031-CV, peptide substrate Abz[…]pa was from AnaSpec, Peptide Name: WABC-6 Determination of stock substrate (Abz[…]pa) concentration: ˜25 mM stock solution is made in DMSO using the peptide weight and MW, and diluted to ˜25 μM (1:1000) in 1×PBS. Concentration is determined by absorbance at 354 nm using an extinction coefficient ε of 18172 M^−1 cm^−1, the concentration of stock substrate is corrected, and the substrate stock stored in small aliquots in −80° C. [Substrate Stock]=ABS^354 nm*10^6/18172 (in […]) The extinction coefficient ε^354 nm was adapted from TACE peptide substrate, which had the same quencher-fluorophore pair.
Determination of Stock Enzyme Concentration: the stock concentration of each enzyme is determined by absorbance at 280 nm using an ε of 64150 M^−1 cm^−1 for hBACE1 and MuBACE1, 62870 M^−1 cm^−1 for hBACE2 in 6 M Guanidinium Hydrochloride (from Research Organics, Cat. # 5134G-2), pH ˜6. The extinction coefficient ε^280 nm for each enzyme was calculated based on known amino acid composition and published extinction coefficients for Trp ([…]) and Tyr ([…]) residues (Anal. Biochem. 182, 319-326).
Dilution and mixing steps: total reaction volume: 100 μL
2× inhibitor dilutions in buffer A(66.7 mM Na-Acetate, pH 4.5, 0.0667% CHAPS) were prepared,
4× enzyme dilution in buffer A(66.7 mM Na-Acetate, pH 4.5, 0.0667% CHAPS) were prepared,
100 μM substrate dilution in 1×PBS was prepared, and
50 μL 2× Inhibitor, 25 μL 100 μM substrate are added to each well of 96-well plate (from DYNEX Technologies, VWR #: 11311-046), immediately followed by 25 μL 4× enzyme (added to the inhibitor and substrate mix), and the fluorescence readings are initiated.
Fluorescence Readings: Readings at λex 320 nm and λem 420 nm are taken every 40 sec for 30 min at room temperature and the linear slope for substrate cleavage rate (vi) determined.
Testing at least 10 different inhibitor concentrations is preferred.
The IC50 is the midpoint of a concentration-inhibition curve. A high value points to weaker potency in that assay. `CCC(=O)c1cc(C2(c3cccc(-c4cc(F)cnc4F)c3)N=C(N)N(C)C2=O)cn1CCF` (stereo not drawn) [Example 151, 2-Amino-5-[3-(2,5-difluoropyridin-3-yl)phenyl]-5-[1-(2-fluoro-ethyl)-5-propionyl-1H-pyrrol-3-yl)-3-methyl-3,5-dihydro-4H-imidazol-4-one]: the IC50 is 10 to 100 nM.
In turn, `CCn1cc([C@]2(c3cccc(-c4cccnc4F)c3)N=C(N)N(C)C2=O)cn1` [Example 44B, (5S)-2-Amino-5-(1-ethyl-1H-pyrazol-4-yl)-5-[3-(2-fluoropyridin-3-yl)phenyl]-3-methyl-3,5-dihydro-4H-imidazol-4-one] gave a half-maximal inhibitory concentration (IC50) of 10 to 100 nM.
`CCC(=O)c1cc([C@]2(c3cccc(-c4cc(F)cnc4F)c3)N=C(N)N(C)C2=O)cn1CCF` [242 A] gave a concentration for half-maximal inhibition (IC50) of 10 to 100 nM.
The compound `CCn1cc([C@@]2(c3cccc(-c4cccnc4F)c3)N=C(N)N(C)C2=O)cc1C(=O)C1CC1` [243 B] showed an IC50 of over 1000 nM.
Take `CCC(=O)c1cc([C@]2(c3cccc(-c4cccnc4F)c3)N=C(N)N(C)C2=O)cs1` [244 A]: the half-inhibitory concentration (IC50) fell in the range of 10 to 100 nM.
On to `COC(=O)c1cc([C@]2(c3cccc(-c4cccnc4F)c3)N=C(N)N(C)C2=O)cn1CCF` [257 A], for which the half-maximal inhibitory concentration (IC50) fell in the range of 10 to 100 nM.
`CCn1cc(C2(c3cncnc3)N=C(N)N(C)C2=O)cn1` (stereo not drawn) [Example 42, 2-Amino-5-(1-ethyl-1H-pyrazol-4-yl)-3-methyl-5-(3-pyrimidin-5-yl)-3,5-dihydro-4H-imidazol-4-one] registered an IC50 of 10 to 100 nM.
Consider `CCC(=O)c1cc([C@]2(c3cccc(-c4cccnc4F)c3)N=C(N)N(C)C2=O)cn1CC(F)(F)F` [Example 224A, (5S)-2-amino-5-[3-(2-fluoropyridin-3-yl)phenyl]-3-methyl-5-[5-propionyl-1-(2,2,2-trifluoroethyl)-1H-pyrrol-3-yl]-3,5-dihydro-4H-imidazol-4-one], for which the concentration for half-maximal inhibition (IC50) was in the range of 10 to 100 nM.
`COc1ncccc1-c1cc(C2(c3ccsc3)N=C(N)N(C)C2=O)ccc1F` (stereo not drawn) [Example 38] gave an IC50 of 110 to 1000 nM.
The compound `CCC(=O)c1cc([C@@]2(c3cccc(-c4cccnc4F)c3)N=C(N)N(C)C2=O)cn1CC(F)(F)F` [Example 224B, (5R)-2-amino-5-[3-(2-fluoropyridin-3-yl)phenyl]-3-methyl-5-[5-propionyl-1-(2,2,2-trifluoroethyl)-1H-pyrrol-3-yl]-3,5-dihydro-4H-imidazol-4-one] came in with a concentration for half-maximal inhibition (IC50) of over 1000 nM.
`CC(=O)c1cc([C@]2(c3ccccc3)N=C(N)N(C)C2=O)cn1C` [249 A] displayed an IC50 of over 1000 nM.
Turning to `COC(=O)c1cc([C@@]2(c3ccc(F)c(-c4cccnc4F)c3)N=C(N)N(C)C2=O)cn1CCF` [Example 184B, Methyl 4-{(4R)-2-amino-4-[4-fluoro-3-(2-fluoropyridin-3-yl)phenyl]-1-methyl-5-oxo-4,5-dihydro-1H-imidazol-4-yl}-1-(2-fluoroethyl)-1H-pyrrole-2-carboxylate], the IC50 is 110 to 1000 nM.
`CC(C)n1cc(C#Cc2ccc(F)c(Br)c2)cn1` [Example 94, 4-(3-bromo-4-fluorophenylethynyl)-1-isopropyl-1H-pyrazole] displayed an IC50 of 10 to 100 nM.
With `CCC(=O)c1cc([C@@]2(c3cccc(-c4cccnc4F)c3)N=C(N)N(C)C2=O)cn1CCCC(F)(F)F` [252 B] the figure was over 1000 nM; with `CN1C(=O)C(c2ccsc2)(c2ccc(F)c(-c3cccnc3)c2)N=C1N` (stereo not drawn) [Example 40], 10 to 100 nM; with `CN1C(=O)C(c2cccc(-c3cncnc3)c2)(c2cnn(C)c2)N=C1N` (stereo not drawn) [Example 1, 2-Amino-3-methyl-5-(1-methyl-1H-pyrazol-4-yl)-5-(3-pyrimidin-5-ylphenyl)-3,5-dihydro-4-imidazol-4-one], 110 to 1000 nM.
The compound `CCn1cc([C@]2(c3cccc(-c4cccnc4F)c3)N=C(N)N(C)C2=O)cc1C(=O)C1CC1` [243 A] showed an IC50 of 10 to 100 nM.
In the case of `COC(=O)c1cc([C@@]2(c3ccc(F)c(-c4cncnc4)c3)N=C(N)N(C)C2=O)cn1CC(F)(F)F` [258 B] it was over 1000 nM; in that of `CCC(=O)c1cc([C@@]2(c3cccc(-c4cccnc4F)c3)N=C(N)N(C)C2=O)cn1CC1CC1` [251 B], over 1000 nM; in that of `CCC(=O)c1cc([C@@]2(c3cccc(-c4cc(F)cnc4F)c3)N=C(N)N(C)C2=O)cn1CCF` [242 B], over 1000 nM.
`COC(=O)c1cc([C@]2(c3ccc(F)c(-c4cncnc4)c3)N=C(N)N(C)C2=O)cn1CC(F)(F)F` [258 A] registered an IC50 of 10 to 100 nM.
Take `CCC(=O)c1cc([C@]2(c3cccc(-c4cccnc4F)c3)N=C(N)N(C)C2=O)cn1CC1CC1` [251 A]: the IC50 was in the range of 10 to 100 nM.
Turning to `COC(=O)c1cc([C@@]2(c3cccc(-c4cccnc4F)c3)N=C(N)N(C)C2=O)cn1CCF` [257 B], the IC50 fell in the range of 110 to 1000 nM.
For the compound `CCC(=O)c1cc([C@]2(c3cccc(-c4cccnc4F)c3)N=C(N)N(C)C2=O)cn1CCCC(F)(F)F` [252 A], the IC50 was 10 to 100 nM.
Consider `CCC(=O)c1cc(C2(c3cccc(-c4cccnc4F)c3)N=C(N)N(C)C2=O)c[nH]1` (stereo not drawn) [Example 154], for which the half-maximal inhibitory concentration (IC50) fell in the range of 10 to 100 nM.
`COc1ccc(C2(c3cc(-c4ccc(F)cc4)cs3)N=C(N)N(C)C2=O)cc1C` (stereo not drawn) [Example 111, 2-Amino-5-[4-(4-fluorophenyl)thien-2-yl]-5-(4-methoxy-3-methylphenyl)-3-methyl-3,5-dihydro-4H-imidazol-4-one]: the IC50 lay in the range of 110 to 1000 nM.
`CCC(=O)c1cc(C2(c3cccc(Br)c3)N=C(N)N(C)C2=O)cn1CCF` (stereo not drawn) [Example 150, 2-Amino-5-[3-bromophenyl]-5-[1-(2-fluoroethyl)-5-propionyl-1H-pyrrol-3-yl)-3-methyl-3,5-dihydro-4H-imidazol-4-one]: the IC50 was in the range of 110 to 1000 nM.
For the compound `CCC(=O)c1cc([C@]2(c3cccc(-c4cccnc4F)c3)N=C(N)N(C)C2=O)cn1CCCF` [255 A], the IC50 lay in the range of 10 to 100 nM.
`CCC(=O)c1cc(C2(c3cccc(-c4cccnc4F)c3)N=C(N)N(C)C2=O)cn1CCC(C)C` (stereo not drawn) [Example 153] showed an IC50 of 10 to 100 nM.
In the case of `CC(=O)Cc1cc([C@]2(c3cccc(-c4cccnc4F)c3)N=C(N)N(C)C2=O)cn1CCCF` [Example 248, (5S)-2-Amino-5-[1-(3-fluoropropyl)-5-(2-oxopropyl)-1H-pyrrol-3-yl]-5-[3-(2-fluoropyridin-3-yl)phenyl]-3-methyl-3,5-dihydro-4H-imidazol-4-one] it was 10 to 100 nM; in that of `CCC(=O)c1cc([C@@]2(c3cccc(-c4cccnc4F)c3)N=C(N)N(C)C2=O)cn1CCF` [256 B], over 1000 nM.
Compound `CN1C(=O)C(c2ccsc2)(c2ccc(F)c(-c3cccnc3F)c2)N=C1N` (stereo not drawn) [Example 39] gave an IC50 of 10 to 100 nM.
For the compound `CCC(=O)c1cc([C@]2(c3cccc(-c4cccnc4F)c3)N=C(N)N(C)C2=O)cn1CCF` [256 A], the IC50 was 10 to 100 nM.
In the case of `CCC(=O)c1cc([C@@]2(c3cccc(-c4cccnc4F)c3)N=C(N)N(C)C2=O)cs1` [244 B], the IC50 is 110 to 1000 nM.
In turn, `CCC(=O)c1cc([C@@]2(c3cccc(-c4cccnc4F)c3)N=C(N)N(C)C2=O)cn1CCCCF` [250 B] gave an IC50 of over 1000 nM.
Regarding `CCC(=O)c1cc([C@@]2(c3ccc(F)c(-c4cccnc4F)c3)N=C(N)N(C)C2=O)cn1CC` [Example 183B, (5R)-2-Amino-5-(1-ethyl-5-propionyl-1H-pyrrol-3-yl)-5-[4-fluoro-3-(2-fluoropyridin-3-yl)phenyl]-3-methyl-3,5-dihydro-4H-imidazol-4-one], the IC50 was over 1000 nM.
